Results: paper PMC8922279, “Identification of β-Lactams Active against Mycobacterium tuberculosis by a Consortium of Pharmaceutical Companies and Academic Institutions” (ACS Infectious Diseases, 2022)
Like-named read-outs stand apart in the source and are kept apart here.

Tests used:
[1] = system: wild-type Mtb H37Rv; format: in vivo, 129sv DHP-1 knockout mice; settings: for Log10 CFU per mouse (lungs), Mean: 50 mg/kg sc bid + clavulanate 100 mg/kg po bid, days 9-15, lungs day 16, untreated day 16 mean 9.1
[2] = 300 mg/kg sc, uninfected DHP-1 mice
[3] = female, 129sv DHP-1 knockout, mouse, in vivo
[4] = in vivo; settings: DHP-1 knockout, mouse, sc, 300 mg/kg
[5] = in vivo; settings: female, 129sv DHP-1 knockout, mouse, sc, 50 mg/kg
[6] = system: Mtb H37Rv; assay: MIC90 against replicating (R) Mtb H37Rv, with or without clavulanate; format: cell-based, Mycobacterium tuberculosis; settings: Table S4; for Mtb H37Rv R + CLAV (MIC90): clavulanate 4 μg/mL; for Mtb H37Rv R (MIC90): no clavulanate
[7] = system: Mtb H37Rv; assay: MIC90 against nonreplicating (NR, 4-stress) Mtb H37Rv, with or without clavulanate; format: cell-based, Mycobacterium tuberculosis; settings: 4-stress nonreplicating, Table S4; for Mtb H37Rv NR + CLAV (MIC90): clavulanate 4 μg/mL; for Mtb H37Rv NR (MIC90): no clavulanate
[8] = system: E. coli; assay: Microbial spectrum, E. coli; format: cell-based, Escherichia coli; settings: clavulanate 4 μg/mL; Table S4
[9] = system: P. aeruginosa; assay: Microbial spectrum, P. aeruginosa; format: cell-based, Pseudomonas aeruginosa; settings: clavulanate 4 μg/mL; Table S4
[10] = system: S. aureus; assay: Microbial spectrum, S. aureus; format: cell-based, Staphylococcus aureus; settings: clavulanate 4 μg/mL; Table S4
[11] = system: C. albicans; assay: Microbial spectrum, C. albicans; format: cell-based, Candida albicans; settings: no clavulanate; Table S4
[12] = In vitro plasma stability, human plasma; settings: 2 μM, 37 °C, time point 120 min
[13] = In vitro plasma stability, SD rat plasma; settings: 2 μM, 37 °C, time point 120 min
[14] = Stability in simulated gastric fluid (SGF); settings: 10 μM, pH 1.2, room temperature
[15] = In vitro plasma stability, CD-1 mouse plasma; settings: 2 μM, 37 °C, time point 120 min
[16] = In vitro plasma stability, beagle dog plasma; settings: 2 μM, 37 °C, time point 120 min
[17] = Mouse PK in uninfected CD-1 mice (i.v. and p.o.)
[18] = system: Caco-2 cells; assay: Caco-2 permeability / efflux transporter substrate; settings: for Caco-2 Mean Papp A to B / Caco-2 Mean Papp B to A: 3 μM, pH 7.4, 120 min; for Caco-2 Efflux Ratio / Caco-2 Mean Recovery % A to B / Caco-2 Mean Recovery % B to A / Caco-2 Rank Papp / Efflux Transporter Substrate: Caco-2
[19] = In vitro plasma stability, cynomolgus monkey plasma; settings: 2 μM, 37 °C, time point 120 min
[20] = system: plasma proteins; assay: Plasma protein binding (equilibrium dialysis), human; settings: 2 μM
[21] = system: plasma proteins; assay: Plasma protein binding (equilibrium dialysis), SD rat; settings: 2 μM
[22] = Stability in fasted simulated intestinal fluid (FaSSIF); settings: 10 μM, pH 6.5, room temperature
[23] = system: plasma proteins; assay: Plasma protein binding (equilibrium dialysis), beagle dog; settings: 2 μM
[24] = system: plasma proteins; assay: Plasma protein binding (equilibrium dialysis), CD-1 mouse; settings: 2 μM
[25] = system: plasma proteins; assay: Plasma protein binding (equilibrium dialysis), cynomolgus monkey; settings: 2 μM

Row | SMILES | Mtb H37Rv R + CLAV (MIC90) [6] | Mtb H37Rv R (MIC90) [6] | Mtb H37Rv NR + CLAV (MIC90) [7] | Mtb H37Rv NR (MIC90) [7] | E.coli R + CLAV (MIC90) [8] | P.aeruginosa R + CLAV (MIC90) [9] | S.aureus R + CLAV (MIC90) [10] | C.albicans R (MIC90) [11] | Plasma stability % Remaining, Human [12] | Plasma stability % Remaining, Rat [13] | Plasma stability % Remaining, Mouse [15] | Plasma stability % Remaining, Dog [16] | Caco-2 Mean Papp A to B [18] | Caco-2 Mean Papp B to A [18] | Caco-2 Mean Recovery % A to B [18] | Caco-2 Mean Recovery % B to A [18] | Caco-2 Rank Papp [18] | Plasma stability % Remaining, Monkey [19] | % bound to plasma, Human [20] | % bound to plasma, SD Rat [21] | other results
1 | NC(C(=O)N[C@@H]1C(=O)N2C(C(=O)O)=C(CSc3cccc[n+]3[O-])CS[C@H]12)c1ccc(O)cc1 (stereo partly drawn) [TBBL-0000652] |  |  |  |  |  |  |  |  |  |  |  |  |  |  |  |  |  |  |  |  | Log10 CFU per mouse (lungs), Mean [1]: 8.6 Log10 CFU; reduction of lung CFU compared to untreated control mice ([1]; mouse, in vivo): ~0.5 log10; Comments (tolerability) [2]: Recovered at t= 8h; Tlast [2]: 2.0 to 4.0 h; Tlast [3]: 3.0 h; AUC(0-t) [4]: 29400 ± 32900 ng·h/mL; Cmax [4]: 22200 ± 21700 ng/mL; Tmax [4]: 1 to 2 h; AUC(0-t) [5]: 11500 ng·h/mL; Cmax [5]: 8320 ng/mL; Tmax [5]: 60 min
2 | CCc1nnc(SCC2=C(C(=O)O)N3C(=O)[C@@H](NC(=O)Cc4ccc(C5=NCCN5)cc4)[C@H]3SC2)s1 [TBBL-0000310] | 0.5 µM | 16.4 µM | 92.2 µM | 90.4 µM | 49.9 µM | > 100 µM | 0.9 µM | > 100 µM | 78.9% | 80.0% | 82.2% | 79.6% | 0.46 10-6 cm/s | 0.43 10-6 cm/s | 99.13% | 102.93% | Low | 110.3% | 60.7% | 81.2% | SGF Stability, % remaining, 1h [14]: 86.27%; SGF Stability, % remaining, 24h [14]: 0.61%; AUC[0-5h] ([17]; i.v. dosing (5 mg/kg)): 39113 ng·h/mL; Vd ([17]; i.v. dosing (5 mg/kg)): 0.09 L/kg; clearance ([17]; i.v. dosing (5 mg/kg)): 128 mL/kg/h; half-life ([17]; i.v. dosing (5 mg/kg)): 28.8 min; k el ([17]; i.v. dosing (5 mg/kg)): 1.45 h⁻¹; AUC[0-5h] ([17]; p.o. dosing (25 mg/kg)): 614 ng·h/mL; bioavailability ([17]; p.o. dosing (25 mg/kg)): 0.34%; Caco-2 Efflux Ratio [18]: 0.94; Efflux Transporter Substrate [18]: Poor or no; FaSSIF Stability, % remaining, 6h [22]: 98.8%; FaSSIF Stability, % remaining, 24h [22]: 95.07%; % bound to plasma, Beagle Dog [23]: 30.5%; % bound to plasma, CD-1 Mouse [24]: 49.9%; % bound to plasma, Cynomolgus Monkey [25]: 56.2%
3 | C=CC1=C(C(=O)O)N2C(=O)[C@@H](NC(=O)/C(=N\O)c3csc(N)n3)[C@H]2SC1 [Cefdinir, reference compound] |  |  |  |  |  |  |  |  |  |  |  |  |  |  |  |  |  |  |  |  | Log10 CFU per mouse (lungs), Mean [1]: 8.5 Log10 CFU; effect on lung CFU (in words) ([1]; mouse, in vivo): lower lung CFU count compared to untreated mice; Tlast [3]: 1.0 h; AUC(0-t) [5]: 4630 ng·h/mL; Cmax [5]: 8730 ng/mL; Tmax [5]: 30 min
4 | O=C(O)C1=C(CSc2cccc[n+]2[O-])CS[C@@H]2[C@H](NC(=O)C(F)c3ccccc3)C(=O)N12 (stereo partly drawn) [TBBL-0000004] | 1.5 µM | 1.2 µM | 2.3 µM | 1.7 µM | > 100 µM | > 100 µM | 1.4 µM | > 100 µM | 81.0% | 71.0% | 84.1% | 64.1% | < 0.12 10-6 cm/s | < 0.11 10-6 cm/s | < 98.09% | < 112.70% | Low | 103.9% | 74.1% | 62.0% | AUC[0-5h] ([17]; i.v. dosing (5 mg/kg)): 5075 ng·h/mL; Vd ([17]; i.v. dosing (5 mg/kg)): 1.02 L/kg; clearance ([17]; i.v. dosing (5 mg/kg)): 985 mL/kg/h; half-life ([17]; i.v. dosing (5 mg/kg)): 32.4 min; k el ([17]; i.v. dosing (5 mg/kg)): 0.96 h⁻¹; FaSSIF Stability, % remaining, 6h [22]: 88.58%; FaSSIF Stability, % remaining, 24h [22]: 94.96%; % bound to plasma, Beagle Dog [23]: 59.2%; % bound to plasma, CD-1 Mouse [24]: 65.5%; % bound to plasma, Cynomolgus Monkey [25]: 78.2%
5 | NCc1ccccc1CC(=O)N[C@@H]1C(=O)N2C(C(=O)O)=C(CSc3nnnn3CCO)CS[C@H]12 [TBBL-0000656] | 2.1 µM | 5.8 µM | > 100 µM | > 100 µM | 9.8 µM | > 100 µM | > 100 µM | > 100 µM | 75.1% | 85.1% | 95.0% | 74.7% | < 0.12 10-6 cm/s | 0.27 10-6 cm/s | < 102.47% | 106.09% | Low | 85.7% | 23.3% | 50.2% | SGF Stability, % remaining, 1h [14]: 87.12%; SGF Stability, % remaining, 24h [14]: 53.93%; Caco-2 Efflux Ratio [18]: > 2.26; Efflux Transporter Substrate [18]: Likely; FaSSIF Stability, % remaining, 6h [22]: 89.32%; FaSSIF Stability, % remaining, 24h [22]: 70.9%; % bound to plasma, Beagle Dog [23]: 11.2%; % bound to plasma, CD-1 Mouse [24]: 23.0%; % bound to plasma, Cynomolgus Monkey [25]: 22.0%
6 | CNCc1ccccc1CC(=O)N[C@@H]1C(=O)N2C(C(=O)O)=C(CSc3nnnn3C)CS[C@H]12 [TBBL-0000468] | 5.4 µM | 16.4 µM | > 100 µM | > 100 µM | > 100 µM | > 100 µM | 8.7 µM | > 100 µM | 73.6% | 80.8% | 72.0% | 77.2% | < 0.25 10-6 cm/s | < 0.21 10-6 cm/s | < 102.74% | < 109.10% | Low | 101.7% | 21.1% | 39.1% | SGF Stability, % remaining, 1h [14]: 101.42%; SGF Stability, % remaining, 24h [14]: 49.27%; FaSSIF Stability, % remaining, 6h [22]: 83.23%; FaSSIF Stability, % remaining, 24h [22]: 56.36%; % bound to plasma, Beagle Dog [23]: 7.3%; % bound to plasma, CD-1 Mouse [24]: 1.7%; % bound to plasma, Cynomolgus Monkey [25]: 21.9%
7 | Cn1nnnc1SCC1=C(C(=O)O)N2C(=O)[C@@H](NC(=O)Cc3ccc(C4=NCCCN4)cc3)[C@H]2SC1 [TBBL-0000309] | 0.7 µM | 29.6 µM | > 100 µM | > 100 µM | 20.6 µM | > 100 µM | 1.8 µM | > 100 µM | 79.0% | 79.8% | 68.8% | 77.8% | 0.18 10-6 cm/s | 0.38 10-6 cm/s | 99.65% | 104.93% | Low | 104.7% | 24.6% | 38.2% | SGF Stability, % remaining, 1h [14]: 103.51%; SGF Stability, % remaining, 24h [14]: 60.13%; Caco-2 Efflux Ratio [18]: 2.12; Efflux Transporter Substrate [18]: Likely; FaSSIF Stability, % remaining, 6h [22]: 95.78%; FaSSIF Stability, % remaining, 24h [22]: 77.15%; % bound to plasma, Beagle Dog [23]: 0.0%; % bound to plasma, CD-1 Mouse [24]: 4.1%; % bound to plasma, Cynomolgus Monkey [25]: 29.4%
